Data published in patent US20230340012A1, “NATURAL AND SYNTHETIC COMPOUNDS FOR TREATING CANCER AND OTHER DISEASES” (PACIFIC ARROW LIMITED, priority 2009, published 2023).

System: cancer cells
Assay: MTT cytotoxic assay of esterification products (Cytotoxicity activity)
Type: cell-based, human
Conditions: MTT cytotoxic assay, isolated esterification products of E4A
In short: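 Cytotoxicity was read by MTT (Carmichael method, modified), with cells seeded 24 h ahead of treatment. Sixteen human cancer lines spanning bone, lung, bladder, ovary, colon, pancreas, prostate, skin, mouth, kidney, breast, liver, brain, leukemia and cervix were used. Test samples were acyl chloride esterification products of triterpenes, as mixtures or HPLC-purified compounds.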

Structure (SMILES) | Cytotoxicity activity
C=CCCC(=O)OCC1(C)C(OC(=O)CCC=C)CCC2(C)C1CCC1(C)C2CC=C2C3CC(C)(C)C(O)C(OC(=O)CCC=C)C3(COC(=O)CCC=C)C(O)CC21C (centres unmarked) [Compound C9] | weak
C=CCCC(=O)OCC1(C)C(OC(=O)CCC=C)CCC2(C)C1CCC1(C)C2CC=C2C3CC(C)(C)C(O)C(O)C3(COC(=O)CCC=C)C(OC(=O)CCC=C)CC21C (centres unmarked) [Compound C10] | weak
C=CCCC(=O)OCC1(C)C(OC(=O)CCC=C)CCC2(C)C1CCC1(C)C2CC=C2C3CC(C)(C)C(OC(=O)CCC=C)C(O)C3(COC(=O)CCC=C)C(O)CC21C (centres unmarked) [Compound C11] | weak
C=CCCC(=O)OCC1(C)C(O)CCC2(C)C1CCC1(C)C2CC=C2C3CC(C)(C)C(O)C(OC(=O)CCC=C)C3(COC(=O)CCC=C)C(OC(=O)CCC=C)CC21C (centres unmarked) [Compound C12] | weak
C=CCCC(=O)OCC1(C)C(O)CCC2(C)C1CCC1(C)C2CC=C2C3CC(C)(C)C(OC(=O)CCC=C)C(O)C3(COC(=O)CCC=C)C(OC(=O)CCC=C)CC21C (centres unmarked) [Compound C13] | weak
C=CCCC(=O)OCC1(C)C(OC(=O)CCC=C)CCC2(C)C1CCC1(C)C2CC=C2C3CC(C)(C)C(O)C(OC(=O)CCC=C)C3(COC(=O)CCC=C)C(O)CC21C (centres unmarked) [Compound C14] | weak
C=CCCC(=O)OCC1(C)C(OC(=O)CCC=C)CCC2(C)C1CCC1(C)C2CC=C2C3CC(C)(C)C(OC(=O)CCC=C)C(OC(=O)CCC=C)C3(COC(=O)CCC=C)C(O)CC21C (centres unmarked) [Compound C15] | weak
C=CCCC(=O)OCC1(C)C(O)CCC2(C)C1CCC1(C)C2CC=C2C3CC(C)(C)C(OC(=O)CCC=C)C(OC(=O)CCC=C)C3(COC(=O)CCC=C)C(OC(=O)CCC=C)CC21C (centres unmarked) [Compound C16] | weak
C=CCCC(=O)OCC1(C)C(OC(=O)CCC=C)CCC2(C)C1CCC1(C)C2CC=C2C3CC(C)(C)C(OC(=O)CCC=C)C(O)C3(COC(=O)CCC=C)C(OC(=O)CCC=C)CC21C (centres unmarked) [Compound C17] | weak
C=CCCC(=O)OCC1(C)C(OC(=O)CCC=C)CCC2(C)C1CCC1(C)C2CC=C2C3CC(C)(C)C(O)C(OC(=O)CCC=C)C3(COC(=O)CCC=C)C(OC(=O)CCC=C)CC21C (centres unmarked) [Compound C18] | weak
C=CCCC(=O)OCC1(C)C(OC(=O)CCC=C)CCC2(C)C1CCC1(C)C2CC=C2C3CC(C)(C)C(OC(=O)CCC=C)C(OC(=O)CCC=C)C3(COC(=O)CCC=C)C(OC(=O)CCC=C)CC21C (centres unmarked) [Compound C19] | none
C=CCCC(=O)OCC12C(O)CC3(C)C(=CCC4C5(C)CCC(O)C(C)(CO)C5CCC43C)C1CC(C)(C)C(OC(=O)CCC=C)C2OC(=O)CCC=C (centres unmarked) [Compound C20] | moderate
C=CCCC(=O)OCC1(C)C(O)CCC2(C)C1CCC1(C)C2CC=C2C3CC(C)(C)C(OC(=O)CCC=C)C(OC(=O)CCC=C)C3(CO)C(O)CC21C (centres unmarked) [Compound C21] | moderate
C=CCCC(=O)OC1C(OC(=O)CCC=C)C2(CO)C(OC(=O)CCC=C)CC3(C)C(=CCC4C5(C)CCC(O)C(C)(CO)C5CCC43C)C2CC1(C)C (centres unmarked) [Compound C22] | moderate
C=CCCC(=O)OC1C(OC(=O)CCC=C)C2(CO)C(O)CC3(C)C(=CCC4C5(C)CCC(OC(=O)CCC=C)C(C)(CO)C5CCC43C)C2CC1(C)C (centres unmarked) [Compound C23] | moderate
CCCCCC(=O)OC1C(OC(=O)CCCCC)C2(CO)C(OC(=O)CCCCC)CC3(C)C(=CCC4C5(C)CCC(O)C(C)(CO)C5CCC43C)C2CC1(C)C (centres unmarked) [Compound D22] | moderate
CCCCCC(=O)OC1C(OC(=O)CCCCC)C2(CO)C(O)CC3(C)C(=CCC4C5(C)CCC(OC(=O)CCCCC)C(C)(CO)C5CCC43C)C2CC1(C)C (centres unmarked) [Compound D23] | moderate
CCCCCC(=O)OC1C(OC(=O)CCCCC)C2(CO)C(O)CC3(C)C(=CCC4C5(C)CCC(O)C(C)(CO)C5CCC43C)C2CC1(C)C (centres unmarked) [Compound D24] | moderate

Structure (SMILES) | Cytotoxicity activity
CCCCCC(=O)OCC12C(O)CC3(C)C(=CCC4C5(C)CCC(O)C(C)(CO)C5CCC43C)C1CC(C)(C)C(OC(=O)CCCCC)C2O (centres unmarked) [Compound D25] | moderate
CCCCCC(=O)OCC12C(O)CC3(C)C(=CCC4C5(C)CCC(O)C(C)(CO)C5CCC43C)C1CC(C)(C)C(O)C2OC(=O)CCCCC (centres unmarked) [Compound D26] | moderate
CCCCCC(=O)OCC12C(O)CC3(C)C(=CCC4C5(C)CCC(OC(=O)CCCCC)C(C)(CO)C5CCC43C)C1CC(C)(C)C(O)C2O (centres unmarked) [Compound D27] | moderate
CCCCCC(=O)OCC12C(OC(=O)CCCCC)CC3(C)C(=CCC4C5(C)CCC(O)C(C)(CO)C5CCC43C)C1CC(C)(C)C(O)C2O (centres unmarked) [Compound D28] | moderate
CCCCCC(=O)OCC1(C)C(O)CCC2(C)C1CCC1(C)C2CC=C2C3CC(C)(C)C(OC(=O)CCCCC)C(O)C3(CO)C(O)CC21C (centres unmarked) [Compound D29] | moderate
CCCCCC(=O)OCC1(C)C(O)CCC2(C)C1CCC1(C)C2CC=C2C3CC(C)(C)C(O)C(OC(=O)CCCCC)C3(CO)C(O)CC21C (centres unmarked) [Compound D30] | moderate
CCCCCC(=O)OCC1(C)C(OC(=O)CCCCC)CCC2(C)C1CCC1(C)C2CC=C2C3CC(C)(C)C(O)C(O)C3(CO)C(O)CC21C (centres unmarked) [Compound D31] | moderate
CCCCCC(=O)OCC1(C)C(O)CCC2(C)C1CCC1(C)C2CC=C2C3CC(C)(C)C(O)C(O)C3(CO)C(OC(=O)CCCCC)CC21C (centres unmarked) [Compound D32] | moderate
CCC(CC)C(=O)OCC1(C)C(O)CCC2(C)C1CCC1(C)C2CC=C2C3CC(C)(C)C(O)C(O)C3(CO)C(O)CC21C (centres unmarked) [Compound E1] | moderate
CCC(CC)C(=O)OCC12C(O)CC3(C)C(=CCC4C5(C)CCC(O)C(C)(CO)C5CCC43C)C1CC(C)(C)C(O)C2O (centres unmarked) [Compound E2] | moderate
CCC(CC)C(=O)OCC1(C)C(O)CCC2(C)C1CCC1(C)C2CC=C2C3CC(C)(C)C(O)C(O)C3(COC(=O)C(CC)CC)C(O)CC21C (centres unmarked) [Compound E3] | strong
CCC(CC)C(=O)OCC1(C)C(O)CCC2(C)C1CCC1(C)C2CC=C2C3CC(C)(C)C(OC(=O)C(CC)CC)C(O)C3(COC(=O)C(CC)CC)C(O)CC21C (centres unmarked) [Compound E4] | moderate
CCC(CC)C(=O)OCC1(C)C(O)CCC2(C)C1CCC1(C)C2CC=C2C3CC(C)(C)C(O)C(OC(=O)C(CC)CC)C3(COC(=O)C(CC)CC)C(O)CC21C (centres unmarked) [Compound E5] | moderate
CCC(CC)C(=O)OCC1(C)C(OC(=O)C(CC)CC)CCC2(C)C1CCC1(C)C2CC=C2C3CC(C)(C)C(O)C(O)C3(COC(=O)C(CC)CC)C(O)CC21C (centres unmarked) [Compound E6] | moderate
CCC(CC)C(=O)OCC1(C)C(O)CCC2(C)C1CCC1(C)C2CC=C2C3CC(C)(C)C(O)C(O)C3(COC(=O)C(CC)CC)C(OC(=O)C(CC)CC)CC21C (centres unmarked) [Compound E7] | moderate
CCC(CC)C(=O)OCC1(C)C(O)CCC2(C)C1CCC1(C)C2CC=C2C3CC(C)(C)C(OC(=O)C(CC)CC)C(OC(=O)C(CC)CC)C3(COC(=O)C(CC)CC)C(O)CC21C (centres unmarked) [Compound E8] | weak
CCC(CC)C(=O)OCC1(C)C(OC(=O)C(CC)CC)CCC2(C)C1CCC1(C)C2CC=C2C3CC(C)(C)C(O)C(OC(=O)C(CC)CC)C3(COC(=O)C(CC)CC)C(O)CC21C (centres unmarked) [Compound E9] | weak
